Values joined by “and” are separate entries in the source; they are usually repeats but may differ in a detail not shown here. Equal values may be shown once. Inconclusive results and toxic doses are left out.
System: P388 leukemia ip, CD2F1 mice, survival T/C
Test: NCI In Vivo Anticancer Drug Screen. Data for tumor model P388 Leukemia (intraperitoneal) in CD2F1 (CDF1) mice
Settings: endpoint: median survival time, higher = longer survival
How it was run: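 Mice carrying the transplanted tumor received test compound or vehicle. Survival was recorded in each group, and the value is the treated-group measurement divided by that of the vehicle-treated control group.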

[1] = dose: 50.0 mg/kg/injection, schedule: Q01DX005 (ip), vehicle: saline with Tween-80
[2] = dose: 100.0 mg/kg/injection, schedule: Q01DX005 (ip), vehicle: saline with Tween-80
[3] = dose: 200.0 mg/kg/injection, schedule: Q01DX005 (ip), vehicle: saline with Tween-80
[4] = dose: 50.0 mg/kg/injection, schedule: Q01DX005 (ip), vehicle: Klucel (hydroxypropylcellulose) (HPC)
[5] = dose: 100.0 mg/kg/injection, schedule: Q01DX005 (ip), vehicle: Klucel (hydroxypropylcellulose) (HPC)
[6] = dose: 200.0 mg/kg/injection, schedule: Q01DX005 (ip), vehicle: Klucel (hydroxypropylcellulose) (HPC)
[7] = dose: 60.0 mg/kg/injection, schedule: Q01DX005 (ip), vehicle: saline
[8] = dose: 60.0 mg/kg/injection, schedule: Q01DX005 (ip), vehicle: saline with Tween-80
[9] = dose: 120.0 mg/kg/injection, schedule: Q01DX005 (ip), vehicle: saline with Tween-80
[10] = dose: 50.0 mg/kg/injection, schedule: Q01DX009 (ip), vehicle: Klucel (hydroxypropylcellulose) (HPC)
[11] = dose: 100.0 mg/kg/injection, schedule: Q01DX009 (ip), vehicle: Klucel (hydroxypropylcellulose) (HPC)
[12] = dose: 12.5 mg/kg/injection, schedule: Q01DX009 (ip), vehicle: Klucel (hydroxypropylcellulose) (HPC)
[13] = dose: 25.0 mg/kg/injection, schedule: Q01DX009 (ip), vehicle: Klucel (hydroxypropylcellulose) (HPC)
[14] = dose: 50.0 mg/kg/injection, schedule: Q01DX009 (ip), vehicle: saline with Tween-80
[15] = dose: 240.0 mg/kg/injection, schedule: Q01DX005 (ip), vehicle: saline with Tween-80

Cc1cc(N)ccc1N=Nc1ccc(N=Nc2ccc(N=Nc3ccc4cc(S(=O)(=O)O)cc(S(=O)(=O)O)c4c3)c(C)c2)c(C)c1
T/C [1]: 114 % of control and 122 % of control
T/C [2]: 115 % of control and 118 % of control and 124 % of control
T/C [3]: 115 % of control

Nc1ncnc2c1ccn2Cc1c(Cl)cccc1Cl
T/C (dose: 50.0 mg/kg/injection, schedule: Q01DX005 (ip), vehicle: distilled water + alcohol): 101 % of control
T/C (dose: 100.0 mg/kg/injection, schedule: Q01DX005 (ip), vehicle: distilled water + alcohol): 101 % of control
T/C (dose: 200.0 mg/kg/injection, schedule: Q01DX005 (ip), vehicle: distilled water + alcohol): 98 % of control

CCc1c2c(cc3c1[nH]c1ccccc13)C(=O)NC2=O
T/C (dose: 25.0 mg/kg/injection, schedule: Q01DX005 (ip), vehicle: Klucel (hydroxypropylcellulose) (HPC)): 99 % of control
T/C [4]: 90 % of control and 92 % of control
T/C [5]: 97 % of control
T/C [6]: 94 % of control

Cc1ccc(NC(=O)NCc2ccco2)cc1[N+](=O)[O-]
T/C [4]: 96 % of control
T/C [5]: 96 % of control
T/C [6]: 89 % of control

Nc1nc(-c2ccccc2)cc(-c2cc(-c3ccccc3)nc(N)n2)n1
T/C [7]: 100 % of control
T/C (dose: 120.0 mg/kg/injection, schedule: Q01DX005 (ip), vehicle: saline): 102 % of control
T/C (dose: 240.0 mg/kg/injection, schedule: Q01DX005 (ip), vehicle: saline): 100 % of control

COC(=O)C(C)N(CCCl)P(=O)(N1CC1)N1CC1 (stereo not drawn)
T/C (dose: 7.5 mg/kg/injection, schedule: Q01DX005 (ip), vehicle: saline): 119 % of control
T/C (dose: 30.0 mg/kg/injection, schedule: Q01DX005 (ip), vehicle: saline): 182 % of control

CN1CC=C(c2ccccc2)CC1
T/C (dose: 6.25 mg/kg/injection, schedule: Q01DX005 (ip), vehicle: saline): 97 % of control
T/C (dose: 12.5 mg/kg/injection, schedule: Q01DX005 (ip), vehicle: saline): 99 % of control
T/C (dose: 25.0 mg/kg/injection, schedule: Q01DX005 (ip), vehicle: saline): 101 % of control and 98 % of control

N#Cc1ccc(OC(=O)Nc2ccccc2C(F)(F)F)cc1
T/C [8]: 86 % of control
T/C [9]: 87 % of control

COc1ccc2c3c([nH]c2c1[N+](=O)[O-])C(C)N(C)CC3 (stereo not drawn)
T/C (dose: 8.5 mg/kg/injection, schedule: Q01DX005 (ip), vehicle: Klucel (hydroxypropylcellulose) (HPC)): 107 % of control
T/C (dose: 17.0 mg/kg/injection, schedule: Q01DX005 (ip), vehicle: Klucel (hydroxypropylcellulose) (HPC)): 101 % of control

[Cu+2].[NH-]C(Cc1cnc[nH]1)C(=O)O.[NH-]CC(=O)O (stereo not drawn)
T/C (dose: 6.25 mg/kg/injection, schedule: Q01DX009 (ip), vehicle: saline): 97 % of control
T/C (dose: 12.5 mg/kg/injection, schedule: Q01DX009 (ip), vehicle: saline): 93 % of control and 95 % of control
T/C (dose: 25.0 mg/kg/injection, schedule: Q01DX009 (ip), vehicle: saline): 97 % of control

O=C1Nc2cnc(Cl)nc2Nc2cc(Cl)ccc21
T/C [4]: 95 % of control
T/C [5]: 95 % of control
T/C [6]: 92 % of control

CC(=O)c1cnn(C(N)=O)c1C
T/C (dose: 15.0 mg/kg/injection, schedule: Q01DX005 (ip), vehicle: Klucel (hydroxypropylcellulose) (HPC)): 95 % of control and 96 % of control
T/C (dose: 30.0 mg/kg/injection, schedule: Q01DX005 (ip), vehicle: Klucel (hydroxypropylcellulose) (HPC)): 100 % of control and 102 % of control
T/C (dose: 60.0 mg/kg/injection, schedule: Q01DX005 (ip), vehicle: Klucel (hydroxypropylcellulose) (HPC)): 101 % of control and 97 % of control
T/C (dose: 120.0 mg/kg/injection, schedule: Q01DX005 (ip), vehicle: Klucel (hydroxypropylcellulose) (HPC)): 105 % of control and 96 % of control and 98 % of control
T/C (dose: 240.0 mg/kg/injection, schedule: Q01DX005 (ip), vehicle: Klucel (hydroxypropylcellulose) (HPC)): 107 % of control

COc1cc2c(cc1OC)C(=O)Cc1ccc(OC)c(O)c1CN(C)CC2
T/C (dose: 2.25 mg/kg/injection, schedule: Q01DX009 (ip), vehicle: Klucel (hydroxypropylcellulose) (HPC)): 111 % of control
T/C (dose: 4.5 mg/kg/injection, schedule: Q01DX009 (ip), vehicle: Klucel (hydroxypropylcellulose) (HPC)): 108 % of control
T/C (dose: 9.0 mg/kg/injection, schedule: Q01DX009 (ip), vehicle: Klucel (hydroxypropylcellulose) (HPC)): 118 % of control
T/C (dose: 18.0 mg/kg/injection, schedule: Q01DX009 (ip), vehicle: Klucel (hydroxypropylcellulose) (HPC)): 108 % of control

CCSc1nc2ccc(N=C/C=C/c3ccccc3)cc2s1
T/C [10]: 110 % of control
T/C [11]: 98 % of control
T/C (dose: 200.0 mg/kg/injection, schedule: Q01DX009 (ip), vehicle: Klucel (hydroxypropylcellulose) (HPC)): 110 % of control

O=C1CC2(CCCCC2)C(=O)N1c1ccc(-c2ccc(N3C(=O)CC4(CCCCC4)C3=O)cc2)cc1
T/C (dose: 100.0 mg/kg/injection, schedule: Q04DX002 (ip), vehicle: Klucel (hydroxypropylcellulose) (HPC)): 89 % of control
T/C (dose: 200.0 mg/kg/injection, schedule: Q04DX002 (ip), vehicle: Klucel (hydroxypropylcellulose) (HPC)): 88 % of control
T/C (dose: 400.0 mg/kg/injection, schedule: Q04DX002 (ip), vehicle: Klucel (hydroxypropylcellulose) (HPC)): 91 % of control

COB(C1CCCCC1)C1CCCCC1
T/C (dose: 50.0 mg/kg/injection, schedule: Q01DX009 (ip), vehicle: acetone): 100 % of control
T/C (dose: 100.0 mg/kg/injection, schedule: Q01DX009 (ip), vehicle: acetone): 105 % of control
T/C (dose: 200.0 mg/kg/injection, schedule: Q01DX009 (ip), vehicle: acetone): 105 % of control

CN1C2C=CC(=O)C1C1C(=O)N(c3ccccc3)C(=O)C12 (stereo not drawn)
T/C (dose: 17.5 mg/kg/injection, schedule: Q01DX005 (ip), vehicle: Klucel (hydroxypropylcellulose) (HPC)): 109 % of control and 121 % of control
T/C (dose: 35.0 mg/kg/injection, schedule: Q01DX005 (ip), vehicle: Klucel (hydroxypropylcellulose) (HPC)): 113 % of control and 118 % of control
T/C (dose: 70.0 mg/kg/injection, schedule: Q01DX005 (ip), vehicle: Klucel (hydroxypropylcellulose) (HPC)): 121 % of control

CC1(C#N)N=C(c2ccccc2)c2ccccc2N1C(=O)Oc1ccccc1 (stereo not drawn)
T/C [8]: 98 % of control
T/C [9]: 98 % of control

C=CC(=O)NC(=O)Nc1ccccc1Cl
T/C (dose: 6.25 mg/kg/injection, schedule: Q01DX009 (ip), vehicle: Klucel (hydroxypropylcellulose) (HPC)): 102 % of control
T/C [12]: 106 % of control
T/C [13]: 109 % of control and 118 % of control

C=CCOC(=O)C1=C(O[Si]C(C)(C)C)CCCC1
T/C [14]: 96 % of control
T/C (dose: 100.0 mg/kg/injection, schedule: Q01DX009 (ip), vehicle: saline with Tween-80): 99 % of control
T/C (dose: 200.0 mg/kg/injection, schedule: Q01DX009 (ip), vehicle: saline with Tween-80): 109 % of control

O=C1/C(=C/c2ccc(O)cc2)CCC/C1=C\c1ccc(O)cc1
T/C [8]: 97 % of control
T/C [9]: 93 % of control
T/C [15]: 92 % of control

CC(=O)OCC1OC(Nc2ncc(-c3ccc(C)cc3)s2)C(OC(C)=O)C(OC(C)=O)C1OC(C)=O (stereo not drawn)
T/C [1]: 98 % of control
T/C [2]: 98 % of control
T/C [3]: 92 % of control

CN(C)c1ccc(C(Nc2ccc(S(=O)(=O)Nc3ccccc3)cc2)c2ccc(N(C)C)cc2)cc1
T/C (dose: 100.0 mg/kg/injection, schedule: Q04DX003 (ip), vehicle: Klucel (hydroxypropylcellulose) (HPC)): 105 % of control
T/C (dose: 200.0 mg/kg/injection, schedule: Q04DX003 (ip), vehicle: Klucel (hydroxypropylcellulose) (HPC)): 110 % of control
T/C (dose: 400.0 mg/kg/injection, schedule: Q04DX003 (ip), vehicle: Klucel (hydroxypropylcellulose) (HPC)): 105 % of control

CC/C=C/c1cc2ccccc2c(=O)o1
T/C [12]: 106 % of control
T/C [13]: 114 % of control
T/C [10]: 100 % of control
T/C [11]: 110 % of control

C[n+]1c(C2(C)CCCO2)sc2ccccc21 (stereo not drawn)
T/C [7]: 103 % of control

O=C(CN1CCC(O)(c2ccccc2)CC1)N1CCN(/C=C/c2ccccc2)CC1
T/C [8]: 100 % of control
T/C [9]: 104 % of control
T/C [15]: 91 % of control

CCCCN(CCC#N)c1ccc(/C=C/c2ccnc3ccccc23)cc1
T/C [13]: 96 % of control
T/C [10]: 96 % of control

O=C(c1ccccc1)c1cc(Cl)ccc1NCC(O)COc1ccc(Cl)cc1 (stereo not drawn)
T/C [8]: 93 % of control
T/C [9]: 89 % of control
T/C [15]: 88 % of control

N#CC(Br)(CBr)COc1ccc(Cl)cc1Cl (stereo not drawn)
T/C (dose: 12.5 mg/kg/injection, schedule: Q01DX009 (ip), vehicle: saline with Tween-80): 100 % of control
T/C (dose: 25.0 mg/kg/injection, schedule: Q01DX009 (ip), vehicle: saline with Tween-80): 118 % of control
T/C [14]: 108 % of control

OCC#C[C@@H]1CC[C@H]1C#CCO
T/C [4]: 100 % of control
T/C [5]: 103 % of control
T/C [6]: 103 % of control
